In brackets after ≈: the same amount, converted by molar mass. Each block holds one compound with its values, some of them ahead of it.
Columns and labels:
[1] = tested on: Staphylococcus aureus; assay: Antibacterial activity against methicillin-sensitive Staphylococcus aureus assessed as reduction in microbial growth; format: functional
[2] = tested on: Staphylococcus aureus; assay: Antibacterial activity against Methicillin-resistant Staphylococcus aureus assessed as bacterial growth inhibition; format: functional
[3] = tested on: Staphylococcus aureus; assay: Antibacterial activity against Methicillin-sensitive Staphylococcus aureus assessed as bacterial growth inhibition; format: functional
[4] = tested on: Staphylococcus epidermidis; assay: Antibacterial activity against […] Staphylococcus epidermidis ATCC 35984 after 16 to 18 hrs by CLSI protocol based broth microdilution assay; format: functional; conditions: time 16-18 hrs
[5] = tested on: Staphylococcus epidermidis; assay: Antibacterial activity against methicillin-sensitive Staphylococcus epidermidis ATCC 12228 assessed as reduction in bacterial growth incubated for 18 hrs by agar dilution method; format: functional
[6] = tested on: Staphylococcus aureus; assay: Antibacterial activity against […] Staphylococcus aureus ATCC 43300 assessed as reduction in bacterial growth by CLSI protocol based broth microdilution method; format: functional
[7] = tested on: Staphylococcus aureus; assay: Antibacterial activity against […] Staphylococcus aureus ATCC 43300 assessed as reduction in microbial growth after 16 hrs by broth microdilution method; format: functional
[8] = tested on: Staphylococcus aureus; assay: Antibacterial activity against […] Staphylococcus aureus ATCC 43300 assessed as inhibition of bacterial growth; format: functional
[9] = tested on: Staphylococcus aureus; assay: Antibacterial activity against […] Staphylococcus aureus ATCC 43300 assessed as inhibition of bacterial growth measured after 24 hrs by MH broth based assay; format: functional
[10] = tested on: Staphylococcus aureus; assay: Antimicrobial activity against […] Staphylococcus aureus ATCC 33591 assessed as reduction in microbial growth incubated for 24 hrs by CLSI protocol based analysis; format: functional
[11] = Cytotoxicity against mouse RAW264.7 cells assessed as reduction in cell viability incubated for 48 hrs by MTT assay; format: toxicity, cell-based
[12] = tested on: Staphylococcus aureus; assay: Antimicrobial activity against methicillin-Staphylococcus aureus 29213 assessed as inhibition of microbial growth incubated for 24 hrs by broth-microdilution assay; format: functional
[13] = tested on: Staphylococcus aureus; assay: Antibacterial activity against Staphylococcus aureus ATCC 25923 assessed as reduction in bacterial growth incubated for 24 hrs by serial dilution method; format: functional
[14] = tested on: Staphylococcus aureus; assay: Antimicrobial activity against […] Staphylococcus aureus ATCC 33591 assessed as inhibition of microbial growth measured after 20 to 24 hrs incubation by CLSI method; format: functional; conditions: time 20-24 hrs
[15] = tested on: Staphylococcus aureus; assay: Antimicrobial activity against […] Staphylococcus aureus ATCC 43300 assessed as inhibition of microbial growth measured after 20 to 24 hrs incubation by CLSI method; format: functional; conditions: time 20-24 hrs
[16] = tested on: Escherichia coli; assay: Antibacterial activity against Escherichia coli ATCC 25922 assessed as bacterial growth inhibition measured after 18 hrs by CLSI based method; format: functional
[17] = tested on: Staphylococcus; assay: Antimicrobial activity against methicillin-resistant coagulase negative Staphylococcus P1369 at 1 nmol relative to control; format: functional

- MIC [1]: 0.06 µg/mL
SMILES: C=C[C@]1(C)C[C@@H](OC(=O)CSc2cccc(NC(=O)Nc3ccc(C#N)cc3)c2)[C@]2(C)[C@H](C)CC[C@]3(CCC(=O)[C@H]32)[C@@H](C)[C@@H]1O

SMILES: C=C[C@]1(C)C[C@@H](OC(=O)CSCc2csc(NC(=O)CN3CCC[C@@H]3CO)n2)[C@]2(C)[C@H](C)CC[C@]3(CCC(=O)[C@H]32)[C@@H](C)[C@@H]1O
- MIC [2]: 0.063 µg/mL (≈ 0.0972 µM)
- MIC [3]: 0.063 µg/mL (≈ 0.0972 µM)
- MIC [4]: 0.063 µg/mL (≈ 0.0972 µM)
- MIC [5]: 0.063 µg/mL (≈ 0.0972 µM)
- MIC [6]: 0.063 µg/mL (≈ 0.0972 µM)

SMILES: C=C[C@]1(C)C[C@@H](OC(=O)CSc2ccccc2NC(=O)c2cccc(F)c2)[C@]2(C)[C@H](C)CC[C@]3(CCC(=O)[C@H]32)[C@@H](C)[C@@H]1O
- MIC [7]: 0.125 µg/mL

SMILES: C=C[C@]1(C)C[C@@H](OC(=O)CSc2ccc(NC(=O)c3cccc(F)c3)cc2)[C@]2(C)[C@H](C)CC[C@]3(CCC(=O)[C@H]32)[C@@H](C)[C@@H]1O
- MIC [8]: 0.03 µg/mL (≈ 0.0494 µM)
- MBC [9]: 0.03 µg/mL (≈ 0.0494 µM)

SMILES: C=C[C@]1(C)C[C@@H](OC(=O)CSc2nc3c(F)cccc3o2)[C@]2(C)[C@H](C)CC[C@]3(CCC(=O)[C@H]32)[C@@H](C)[C@@H]1O
- MIC [10]: 0.125 µg/mL

SMILES: C=C[C@]1(C)C[C@@H](OC(=O)CSc2ccc(NC(=O)c3ccc(C#N)cc3)cc2)[C@]2(C)[C@H](C)CC[C@]3(CCC(=O)[C@H]32)[C@@H](C)[C@@H]1O
- MIC [8]: 0.015 µg/mL (≈ 0.0244 µM)
- MBC [9]: 0.03 µg/mL (≈ 0.0488 µM)

SMILES: C=C[C@]1(C)C[C@@H](OC(=O)CSc2ccc(NC(=O)c3ccccc3F)cc2)[C@]2(C)[C@H](C)CC[C@]3(CCC(=O)[C@H]32)[C@@H](C)[C@@H]1O
- MIC [8]: 0.03 µg/mL (≈ 0.0494 µM)
- MBC [9]: 0.062 µg/mL (≈ 0.102 µM)

- MIC [12]: 0.125 µg/mL
SMILES: C=C[C@]1(C)C[C@@H](OC(=O)CSc2nnc(-c3cccs3)o2)[C@]2(C)[C@H](C)CC[C@]3(CCC(=O)[C@H]32)[C@@H](C)[C@@H]1O
- IC50 at 48 h [11]: 17.9 µg/mL (≈ 32.8 µM)

SMILES: C=C[C@]1(C)C[C@@H](OC(=O)CSc2ccc(NC(=O)c3ccc(F)cc3)cc2)[C@]2(C)[C@H](C)CC[C@]3(CCC(=O)[C@H]32)[C@@H](C)[C@@H]1O
- MIC [8]: 0.03 µg/mL (≈ 0.0494 µM)
- MBC [9]: 0.03 µg/mL (≈ 0.0494 µM)

- MIC [13]: 0.008 µg/mL (≈ 0.0112 µM)
SMILES: C=C[C@]1(C)C[C@@H](OC(=O)CN2CCN(C(=O)CNC[C@H]3CN(c4ccc(Cl)cc4)C(=O)O3)CC2)[C@]2(C)[C@H](C)CC[C@]3(CCC(=O)[C@H]32)[C@@H](C)[C@@H]1O

SMILES: C=C[C@]1(C)C[C@@H](OC(=O)CSc2ccccc2NC(=O)c2ccccc2C)[C@]2(C)[C@H](C)CC[C@]3(CCC(=O)[C@H]32)[C@@H](C)[C@@H]1O
- MIC [7]: 0.25 µg/mL

SMILES: C=C[C@]1(C)C[C@@H](OC(=O)CSc2ccc(NC(=O)c3cccs3)cc2)[C@]2(C)[C@H](C)CC[C@]3(CCC(=O)[C@H]32)[C@@H](C)[C@@H]1O
- MIC [8]: 0.03 µg/mL (≈ 0.0504 µM)
- MBC [9]: 0.03 µg/mL (≈ 0.0504 µM)

SMILES: C=C[C@]1(C)C[C@@H](OC(=O)CN2CCN(c3ccc(C4CC(N)=NC=C4c4ccccc4[N+](=O)[O-])cc3)CC2)[C@]2(C)[C@H](C)CC[C@]3(CCC(=O)[C@H]32)[C@@H](C)[C@@H]1O (stereo partly specified)
- MIC [14]: 1 µg/mL
- MIC [15]: 1 µg/mL
- MIC [16]: 8 µg/mL (≈ 10.8 µM)

SMILES: C=C[C@]1(C)C[C@@H](OC(=O)CS[C@@H]2CC[C@@H](N)C[C@H]2O)[C@]2(C)[C@H](C)CC[C@]3(CCC(=O)[C@H]32)[C@@H](C)[C@@H]1O [LEFAMULIN]
- Activity [17]: 3.4%

From ChEMBL document CHEMBL5500336, “Recent advances in developing modified C14 side chain pleuromutilins as novel antibacterial agents” (Eur J Med Chem, 2024)
